In ChEMBL document CHEMBL1201862, “PubChem BioAssay data set” (2004):
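Cells were grown in 96-well plates and exposed to each compound for 48 hours at five concentrations; endpoints were interpolated linearly between bracketing concentrations, or set to the highest concentration if not reached. The concentration for 50% growth inhibition is given as GI50.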 The source made the active and inactive calls. No stated cut-off is given here; in the data, active = GI50 up to about 1.1 µM and inactive = higher.

Key:
Assay in all cases: NCI anticancer screen, dose series, 48 h
RXF 631 = tested on: RXF 631
DMS-114 = tested on: DMS-114
SNB-78 = tested on: SNB-78
HOP-18 = tested on: HOP-18
XF498 = tested on: XF498
PC-3 = tested on: PC-3
MDA-N = tested on: MDA-N
MDA-MB-231 = tested on: MDA-MB-231
LXFL 529 = tested on: LXFL 529

| SMILES | GI50 (DMS-114) | GI50 (SNB-78) | GI50 (HOP-18) | GI50 (XF498) | GI50 (PC-3) | GI50 (MDA-N) | GI50 (MDA-MB-231) | other results |
| --- | --- | --- | --- | --- | --- | --- | --- | --- |
| c1ccc(C(c2ccccc2)c2cccnc2)cc1 | 82 µM (inactive) | > 100 µM (inactive) | > 100 µM (inactive) |  |  |  |  | GI50 (RXF 631): > 100 µM (inactive) |
| COc1ccc(O)c(C#N)c1C#N.COc1ccc(OC)c(C#N)c1C#N |  | > 100 µM (inactive) |  | > 100 µM (inactive) |  |  |  |  |
| CO/N=C1\CC(NC(=O)C(F)(F)F)c2ccsc21 (configuration not stated) |  |  |  |  | > 100 µM (inactive) | > 100 µM (inactive) | > 100 µM (inactive) |  |
| CNC(=O)OCc1c(CO)nc(SC)n1C | > 100 µM (inactive) |  | > 100 µM (inactive) | > 100 µM (inactive) |  |  |  |  |
| O=C(O)c1ccccc1/N=C/c1ccc(N(CCCl)CCCl)cc1 |  | > 82.8 µM (inactive) | > 100 µM (inactive) | 0.01 µM (active) |  |  |  |  |
| O=[N+]([O-])c1ccc(-c2ccc([C@H]3CC(c4cc(F)c(Cl)cc4Cl)=NN3)o2)cc1 |  |  |  |  |  | 36.1 µM (inactive) |  |  |
| COc1cc2nc(-c3cccs3)nc(N3CCN(c4ccccc4)CC3)c2cc1OC |  |  |  |  | > 100 µM (inactive) |  | > 100 µM (inactive) |  |
| COc1ccc(C(C#N)NC23CC4CC(CC(C4)C2)C3)cc1OC (configuration not stated) |  |  |  |  | > 100 µM (inactive) | > 100 µM (inactive) | > 100 µM (inactive) |  |
| Brc1ccc2[nH]c3c(C4=NCCC4)nccc3c2c1 | 14.5 µM (inactive) | > 100 µM (inactive) | 10.2 µM (inactive) | > 39.5 µM (inactive) |  |  |  |  |
| CC[C@H](C)[C@H]1NC(=O)C(C(C)=O)=C1O | 76.7 µM (inactive) | > 100 µM (inactive) | 58.1 µM (inactive) | > 100 µM (inactive) |  |  |  | GI50 (RXF 631): 92.5 µM (inactive); GI50 (LXFL 529): 66.5 µM (inactive) |
| O=[N+]([O-])c1ccc(Cc2nc3cc4ccccc4cc3[nH]2)cc1C(F)(F)F |  |  |  |  | 15.4 µM (inactive) |  |  |  |
| CCOC(=O)Cn1c(=O)ccn(COCCO)c1=O |  |  |  |  | > 100 µM (inactive) | > 100 µM (inactive) | > 100 µM (inactive) |  |
| CCO/C=N\C1=C(C#N)SC2=N/C(=C\c3ccc(OC)cc3)C(=O)N21 |  |  |  |  |  | > 100 µM (inactive) | 80.5 µM (inactive) |  |
